Source: ChEMBL document CHEMBL4715784, “Screening and biological evaluation of a novel STAT3 signaling pathway inhibitor against cancer” (Bioorg Med Chem Lett, 2016)
Activity calls are given as the source filed them. No cut-off for these calls is given here.

Legend:
[1] = Binding affinity to STAT3 K591A mutant (unknown origin) expressed in Escherichia coli by CM5 sensor chip immobilization based SPR assay; design: species or system Homo sapiens
MDA-MB-468 [2] = experiment: Antiproliferative activity against human MDA-MB-468 cells harboring active STAT3 assessed as reduction in cell growth incubated for 24 hrs by CCK8 assay; format: functional, cell-based; conditions: MDA-MB-468, 24 h
MDA-MB-231 = experiment: Antiproliferative activity against human MDA-MB-231 cells harboring active STAT3 assessed as reduction in cell growth incubated for 24 hrs by CCK8 assay; format: functional, cell-based; conditions: MDA-MB-231, 24 h
DU-145 = experiment: Antiproliferative activity against human DU-145 cells harboring active STAT3 assessed as reduction in cell growth incubated for 24 hrs by CCK8 assay; format: functional, cell-based; conditions: DU-145, 24 h
MCF7 = experiment: Antiproliferative activity against human MCF7 cells assessed as reduction in cell growth incubated for 24 hrs by CCK8 assay; format: functional, cell-based; conditions: MCF7, 24 h
[3] = molecular target: T1, Signal transducer and activator of transcription 3 (Homo sapiens, UniProt P40763); experiment: Binding affinity to STAT3 (unknown origin) expressed in Escherichia coli by CM5 sensor chip immobilization based SPR assay
T1 sequence (P40763 whole entry): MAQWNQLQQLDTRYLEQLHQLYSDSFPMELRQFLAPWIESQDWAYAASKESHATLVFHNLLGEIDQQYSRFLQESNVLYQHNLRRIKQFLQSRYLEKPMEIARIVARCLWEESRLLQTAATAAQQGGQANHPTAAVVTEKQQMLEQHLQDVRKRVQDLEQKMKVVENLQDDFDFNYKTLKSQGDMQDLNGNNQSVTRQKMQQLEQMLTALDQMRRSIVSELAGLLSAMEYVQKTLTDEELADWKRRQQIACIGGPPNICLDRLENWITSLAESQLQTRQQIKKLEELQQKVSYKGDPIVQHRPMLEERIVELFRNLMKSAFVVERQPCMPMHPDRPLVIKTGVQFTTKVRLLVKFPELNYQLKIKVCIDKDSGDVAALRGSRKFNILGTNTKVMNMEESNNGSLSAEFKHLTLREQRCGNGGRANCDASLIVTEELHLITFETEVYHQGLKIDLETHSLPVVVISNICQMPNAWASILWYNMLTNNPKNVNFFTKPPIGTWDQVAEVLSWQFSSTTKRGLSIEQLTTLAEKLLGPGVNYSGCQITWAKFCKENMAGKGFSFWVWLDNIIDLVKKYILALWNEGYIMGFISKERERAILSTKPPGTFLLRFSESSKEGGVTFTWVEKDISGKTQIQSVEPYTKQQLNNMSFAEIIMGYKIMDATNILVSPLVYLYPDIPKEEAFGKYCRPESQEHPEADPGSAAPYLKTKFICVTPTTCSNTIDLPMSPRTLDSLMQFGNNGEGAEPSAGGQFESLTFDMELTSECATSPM

[4] = Binding affinity to STAT3 R595G mutant (unknown origin) expressed in Escherichia coli by CM5 sensor chip immobilization based SPR assay; design: species or system Homo sapiens
[5] = Binding affinity to STAT3 C712G mutant (unknown origin) expressed in Escherichia coli by CM5 sensor chip immobilization based SPR assay; design: species or system Homo sapiens
[6] = Binding affinity to STAT3 K591A/S611G mutant (unknown origin) expressed in Escherichia coli by CM5 sensor chip immobilization based SPR assay; design: species or system Homo sapiens
[7] = Binding affinity to STAT3 I643S/Q635G mutant (unknown origin) expressed in Escherichia coli by CM5 sensor chip immobilization based SPR assay; design: species or system Homo sapiens
[8] = molecular target: T1, Signal transducer and activator of transcription 3; experiment: Inhibition of STAT3-dependent transcriptional activity in human HeLa cells transfected with p-Luc-TKS3 assessed as reduction in luciferase expression incubated for 24 hrs by dual luciferase reporter gene assay; format: cell-based
[9] = molecular target: T1, Signal transducer and activator of transcription 3; experiment: Inhibition of STAT3 in human MDA-MB-468 cells assessed as reduction in STAT3 Y705 residue phosphorylation incubated for 24 hrs by Western blot analysis; format: cell-based; conditions: dose 1-30 µM
MDA-MB-468 [10] = experiment: Effect on STAT3 expression in human MDA-MB-468 cells at 1 to 30 uM incubated for 24 hrs by Western blot analysis; format: functional, cell-based; conditions: dose 1-30 µM
[11] = molecular target: T2, Signal transducer and activator of transcription 1-alpha/beta (Homo sapiens) (UniProt P42224); experiment: Inhibition of STAT1 in human MDA-MB-468 cells assessed as reduction in STAT1 phosphorylation at 1 to 30 uM incubated for 24 hrs by Western blot analysis; format: cell-based; conditions: dose 1-30 µM
T2 sequence (whole entry): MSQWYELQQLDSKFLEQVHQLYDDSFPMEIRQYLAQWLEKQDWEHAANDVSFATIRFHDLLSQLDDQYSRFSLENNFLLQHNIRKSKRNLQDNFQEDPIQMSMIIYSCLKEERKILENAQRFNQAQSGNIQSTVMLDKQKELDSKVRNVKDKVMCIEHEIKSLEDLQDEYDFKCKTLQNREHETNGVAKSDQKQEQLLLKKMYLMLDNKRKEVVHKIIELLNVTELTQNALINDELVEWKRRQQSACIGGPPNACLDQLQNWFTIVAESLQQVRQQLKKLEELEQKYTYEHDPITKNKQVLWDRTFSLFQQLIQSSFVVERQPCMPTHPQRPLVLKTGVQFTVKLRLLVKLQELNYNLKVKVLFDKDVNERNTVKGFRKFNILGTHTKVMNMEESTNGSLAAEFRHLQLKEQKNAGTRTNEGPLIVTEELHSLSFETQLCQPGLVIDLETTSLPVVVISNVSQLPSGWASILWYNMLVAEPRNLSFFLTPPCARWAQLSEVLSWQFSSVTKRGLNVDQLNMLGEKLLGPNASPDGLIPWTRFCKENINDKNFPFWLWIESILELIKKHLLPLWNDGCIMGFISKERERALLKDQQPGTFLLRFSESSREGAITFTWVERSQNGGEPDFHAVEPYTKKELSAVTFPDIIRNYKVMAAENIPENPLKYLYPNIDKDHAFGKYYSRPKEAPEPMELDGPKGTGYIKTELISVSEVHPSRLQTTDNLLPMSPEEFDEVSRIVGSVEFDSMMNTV

[12] = molecular target: T3, Signal transducer and activator of transcription 5A (Homo sapiens) (UniProt P42229); experiment: Inhibition of STAT5 in human MDA-MB-468 cells assessed as reduction in STAT5 phosphorylation at 1 to 30 uM incubated for 24 hrs by Western blot analysis; format: cell-based; conditions: dose 1-30 µM
T3 sequence (whole entry): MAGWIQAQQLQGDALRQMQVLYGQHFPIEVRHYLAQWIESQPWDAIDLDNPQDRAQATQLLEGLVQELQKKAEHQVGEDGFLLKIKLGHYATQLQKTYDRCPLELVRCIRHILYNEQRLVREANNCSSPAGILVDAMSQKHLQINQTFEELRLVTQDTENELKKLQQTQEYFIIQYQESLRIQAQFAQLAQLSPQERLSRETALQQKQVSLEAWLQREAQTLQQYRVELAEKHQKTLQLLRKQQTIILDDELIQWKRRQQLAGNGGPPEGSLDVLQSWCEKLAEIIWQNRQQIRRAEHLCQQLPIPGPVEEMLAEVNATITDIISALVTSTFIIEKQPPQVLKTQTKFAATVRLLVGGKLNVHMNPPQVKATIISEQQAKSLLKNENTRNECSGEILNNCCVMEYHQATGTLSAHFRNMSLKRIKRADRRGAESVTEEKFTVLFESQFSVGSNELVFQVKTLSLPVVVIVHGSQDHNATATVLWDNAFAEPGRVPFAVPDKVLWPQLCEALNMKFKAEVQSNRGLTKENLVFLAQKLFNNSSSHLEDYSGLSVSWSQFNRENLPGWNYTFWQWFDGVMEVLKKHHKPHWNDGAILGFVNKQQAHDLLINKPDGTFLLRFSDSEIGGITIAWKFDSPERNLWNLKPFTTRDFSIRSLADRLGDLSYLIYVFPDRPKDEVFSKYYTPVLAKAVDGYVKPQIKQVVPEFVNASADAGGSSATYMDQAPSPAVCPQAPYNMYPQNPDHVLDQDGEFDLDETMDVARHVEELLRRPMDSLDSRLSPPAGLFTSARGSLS

[13] = molecular target: T1, Signal transducer and activator of transcription 3; experiment: Inhibition of STAT3 in human MDA-MB-468 cells assessed as reduction in Bcl-XL expression at 1 to 30 uM incubated for 24 hrs by Western blot analysis; format: cell-based; conditions: dose 1-30 µM
MDA-MB-468 [14] = experiment: Antimigratory activity against human MDA-MB-468 cells assessed as reduction in cell migration incubated for 24 hrs by transwell study based analysis; format: functional; conditions: dose 10-30 µM
[15] = molecular target: T1, Signal transducer and activator of transcription 3; experiment: Displacement of fluorescein-labeled pYLPQTV-NH2 from STAT3 SH2 domain (unknown origin) by fluorescence polarization assay
Homo sapiens = organism: Homo sapiens; experiment: Selectivity ratio of Kd for STAT3 I643S/Q635G mutant (unknown origin) expressed in Escherichia coli to Kd for wild type STAT3 (unknown origin) expressed in Escherichia coli by CM5 sensor chip immobilization based SPR assay

IC50 (MDA-MB-468 [2]): 5.1 µM
IC50 (MDA-MB-231): 13.8 µM
IC50 (DU-145): 63.8 µM
IC50 (MCF7): 134 µM
Activity [3]: Dose-dependent effect
Kd [3]: 4.59 µM
IC50 [8]: 12.5 µM
inhibition [8]: Dose-dependent effect
inhibition [9]: Dose-dependent effect
inhibition [11]: Active
inhibition [12]: Active
inhibition [13]: Active
inhibition [15]: Active
Selectivity ratio (Homo sapiens): 4
Compound: O=C1c2ccccc2C(=O)c2cc(S(=O)(=O)Nc3ccc(O)cc3)ccc21
Kd [1]: 3.84 µM
Kd [4]: 6.53 µM
Kd [5]: 18.5 µM
Kd [6]: 4.8 µM
Kd [7]: 22.7 µM
Activity (MDA-MB-468 [10]): inactive
Activity (MDA-MB-468 [14]): Dose-dependent effect
